# From US6514692B2, “Method for treatment of immunodeficiency virus infection” (priority 1996, dated 2003)
# Values joined by “and” are separate entries in the source; they are usually repeats but may differ in a detail not shown here. Identical values can stand only once. Like-named read-outs stand apart in the source and are kept apart here.
# Key:
# [1] = tested on: SK1 isolate of HIV-1; conditions: for p24 VALUES, single samples: samples 1-3; for IC50 (inhibition of cell-cell transmission): linear regression
# Text: (§1) ME180 cells, a cervical epithelial cell line, were obtained from the American Type Culture Collection. These cells were thawed from liquid nitrogen and grown in RPMI 1640 medium supplemented with 10t fetal bovine serum, glutamine and antibiotics. The cells were adherent and were trypsinized (0.5% trypsin in HBSS) to remove them from the flask for passaging and use in assays. For use in the microtiter transmission inhibition assay, ME180 cells were trypsinized, washed and seeded in 96-well flat bottom microtiter plates (COSTAR) at a density of 5×10^3 cells per well. The cells were incubated at 37° C. for 24 hours prior to the tart of the assay. H9 cells chronically infected with he SK1 isolate of HIV-1 were treated with 200 μg/ml mitomycin C for 60 minutes at 37° C. After treatment the cells were washed three times with tissue culture medium. The chronically infected lymphocytes were added to each well at a density of 2×10^4 cells per well. The concentration of mitomycin C used in the treatment of the lymphocytes was chosen to allow lymphocyte survival for the period of time required to transmit virus to the uninfected ME180 cells, but to die prior to the time of assay so as not to contribute to the p24 signal used as the endpoint (see below). In the transmission assay the lytic peptides D4E1 and D2A21, with and without 150 μg/ml pig mucin, were added prior to the addition of chronically infected cells or were mixed with the chronically infected cells prior to their addition to the monolayer of ME180 cells. Mucin was included because it is an abundant constituent of the normal vaginal secretions of a human being, thus any chemotherapeutic agent targeting HIV should be active in its presence if it is to have clinical value. […] The lymphocytes and peptide were co-cultured with the ME180 cells for 6 hours and then removed by washing the ME180 monolayer four times with PBS. The plate was then incubated at 37° C. for six days. Medium was removed and changed every 48 hours during the incubation stage. No further peptide was added after the initial dose. At six days post-co-cultivation, the supernatant was removed from the wells and evaluated for the quantity of p24 antigen by ELISA. The ELISA was performed according to the manufacturer's recommendations. The amount of virus production in wells treated with various concentrations of the peptides was evaluated with appropriate cell and virus controls. Data are reported as a percent of virus control at each drug concentration. Linear regression analysis was used to calculate the […] and IC95 concentrations of the transmission inhibitor. […] TI represents the toxicity index, which is the ratio of the TC50/IC50, and is an indication of the relative concentrations window that exists between efficacy and toxicity.
# [2] = tested on: ME180 cells; experiment: toxicity (XTT) in transmission inhibition assay; conditions: for TOXICITY VALUES (XTT), single samples: samples 1-3; for TC50 (concentration at which 50% of cells are eliminated): interpolation from % CC
# Text: as §1
# [3] = 0.32 μg/ml, with 150 μg/ml pig mucin
# [4] = 1 μg/ml, with 150 μg/ml pig mucin
# [5] = 3.2 μg/ml, with 150 μg/ml pig mucin
# [6] = 10 μg/ml, with 150 μg/ml pig mucin
# [7] = 32 μg/ml, with 150 μg/ml pig mucin
# [8] = 100 μg/ml, with 150 μg/ml pig mucin
substance,measurement,setting,value
Dextran,"% VC (p24, percent of virus control)","[1]; 0.32 μg/ml, no mucin",93.4%
same,"p24 VALUES, MEAN","[1]; 0.32 μg/ml, no mucin",51.0 µg/mL
same,"p24 VALUES, single samples","[1]; 0.32 μg/ml, no mucin",52.2 µg/mL and 52.5 µg/mL and 48.2 µg/mL
same,"% VC (p24, percent of virus control)",[1]; [3],90.6%
same,"p24 VALUES, MEAN",[1]; [3],56.2 µg/mL
same,"p24 VALUES, single samples",[1]; [3],56.2 µg/mL and 53.5 µg/mL and 58.9 µg/mL
same,"% VC (p24, percent of virus control)","[1]; 1 μg/ml, no mucin",100.2%
same,"p24 VALUES, MEAN","[1]; 1 μg/ml, no mucin",54.7 µg/mL
same,"p24 VALUES, single samples","[1]; 1 μg/ml, no mucin",53.5 µg/mL and 57.0 µg/mL
same,"% VC (p24, percent of virus control)",[1]; [4],86.72%
same,"p24 VALUES, MEAN",[1]; [4],53.1 µg/mL
same,"p24 VALUES, single samples",[1]; [4],51.0 µg/mL and 57.5 µg/mL and 50.9 µg/mL
same,"% VC (p24, percent of virus control)","[1]; 3.2 μg/ml, no mucin",91.4%
same,"p24 VALUES, MEAN","[1]; 3.2 μg/ml, no mucin",49.9 µg/mL
same,"p24 VALUES, single samples","[1]; 3.2 μg/ml, no mucin",50.3 µg/mL and 47.2 µg/mL and 52.2 µg/mL
same,"% VC (p24, percent of virus control)",[1]; [5],88.2%
same,"p24 VALUES, MEAN",[1]; [5],54.7 µg/mL
same,"p24 VALUES, single samples",[1]; [5],52.1 µg/mL and 54.7 µg/mL and 57.3 µg/mL
same,"% VC (p24, percent of virus control)","[1]; 10 μg/ml, no mucin",84.1%
same,"p24 VALUES, MEAN","[1]; 10 μg/ml, no mucin",45.9 µg/mL
same,"p24 VALUES, single samples","[1]; 10 μg/ml, no mucin",45.3 µg/mL and 45.7 µg/mL and 46.6 µg/mL
same,"% VC (p24, percent of virus control)",[1]; [6],92.6%
same,"p24 VALUES, MEAN",[1]; [6],57.5 µg/mL
same,"p24 VALUES, single samples",[1]; [6],53.2 µg/mL and 58.1 µg/mL and 61.1 µg/mL
same,"% VC (p24, percent of virus control)","[1]; 32 μg/ml, no mucin",96.0%
same,"p24 VALUES, MEAN","[1]; 32 μg/ml, no mucin",52.4 µg/mL
same,"p24 VALUES, single samples","[1]; 32 μg/ml, no mucin",51.9 µg/mL and 53.2 µg/mL and 52.0 µg/mL
same,"% VC (p24, percent of virus control)",[1]; [7],102.7%
same,"p24 VALUES, MEAN",[1]; [7],63.7 µg/mL
same,"p24 VALUES, single samples",[1]; [7],65.5 µg/mL and 60.5 µg/mL and 65.1 µg/mL
same,"% VC (p24, percent of virus control)","[1]; 100 μg/ml, no mucin",94.5%
same,"p24 VALUES, MEAN","[1]; 100 μg/ml, no mucin",51.6 µg/mL
same,"p24 VALUES, single samples","[1]; 100 μg/ml, no mucin",52.6 µg/mL and 52.0 µg/mL and 50.1 µg/mL
same,"% VC (p24, percent of virus control)",[1]; [8],104.2%
same,"p24 VALUES, MEAN",[1]; [8],64.6 µg/mL
same,"p24 VALUES, single samples",[1]; [8],63.7 µg/mL and 59.6 µg/mL and 70.6 µg/mL
same,IC50 (inhibition of cell-cell transmission),[1]; no mucin,IC50 = 100 μg/ml
same,IC50 (inhibition of cell-cell transmission),[1]; with 150 μg/ml pig mucin,IC50 = 100 μg/ml
same,"% CC (XTT, percent of cell control)","[2]; 0.32 μg/ml, no mucin",90.1%
same,"TOXICITY VALUES (XTT), MEAN","[2]; 0.32 μg/ml, no mucin",0.458 O.D. @ 450/650 nm
same,"TOXICITY VALUES (XTT), single samples","[2]; 0.32 μg/ml, no mucin",0.462 O.D. @ 450/650 nm and 0.463 O.D. @ 450/650 nm and 0.488 O.D. @ 450/650 nm
same,"% CC (XTT, percent of cell control)",[2]; [3],90.1%
same,"TOXICITY VALUES (XTT), MEAN",[2]; [3],0.458 O.D. @ 450/650 nm
same,"TOXICITY VALUES (XTT), single samples",[2]; [3],0.462 O.D. @ 450/650 nm and 0.463 O.D. @ 450/650 nm and 0.448 O.D. @ 450/650 nm
same,"% CC (XTT, percent of cell control)","[2]; 1 μg/ml, no mucin",88.1%
same,"TOXICITY VALUES (XTT), MEAN","[2]; 1 μg/ml, no mucin",0.447 O.D. @ 450/650 nm
same,"TOXICITY VALUES (XTT), single samples","[2]; 1 μg/ml, no mucin",0.425 O.D. @ 450/650 nm and 0.457 O.D. @ 450/650 nm and 0.450 O.D. @ 450/650 nm
same,"% CC (XTT, percent of cell control)",[2]; [4],88.1%
same,"TOXICITY VALUES (XTT), MEAN",[2]; [4],0.447 O.D. @ 450/650 nm
same,"TOXICITY VALUES (XTT), single samples",[2]; [4],0.425 O.D. @ 450/650 nm and 0.467 O.D. @ 450/650 nm and 0.450 O.D. @ 450/650 nm
same,"% CC (XTT, percent of cell control)","[2]; 3.2 μg/ml, no mucin",91.1%
same,"TOXICITY VALUES (XTT), MEAN","[2]; 3.2 μg/ml, no mucin",0.463 O.D. @ 450/650 nm
same,"TOXICITY VALUES (XTT), single samples","[2]; 3.2 μg/ml, no mucin",0.477 O.D. @ 450/650 nm and 0.453 O.D. @ 450/650 nm and 0.459 O.D. @ 450/650 nm
same,"% CC (XTT, percent of cell control)",[2]; [5],91.1%
same,"TOXICITY VALUES (XTT), MEAN",[2]; [5],0.463 O.D. @ 450/650 nm
same,"TOXICITY VALUES (XTT), single samples",[2]; [5],0.477 O.D. @ 450/650 nm and 0.453 O.D. @ 450/650 nm and 0.459 O.D. @ 450/650 nm
same,"% CC (XTT, percent of cell control)","[2]; 10 μg/ml, no mucin",92.0%
same,"TOXICITY VALUES (XTT), MEAN","[2]; 10 μg/ml, no mucin",0.467 O.D. @ 450/650 nm
same,"TOXICITY VALUES (XTT), single samples","[2]; 10 μg/ml, no mucin",0.468 O.D. @ 450/650 nm and 0.467 O.D. @ 450/650 nm
same,"% CC (XTT, percent of cell control)",[2]; [6],92.0%
same,"TOXICITY VALUES (XTT), MEAN",[2]; [6],0.467 O.D. @ 450/650 nm
same,"TOXICITY VALUES (XTT), single samples",[2]; [6],0.468 O.D. @ 450/650 nm and 0.467 O.D. @ 450/650 nm
same,"% CC (XTT, percent of cell control)","[2]; 32 μg/ml, no mucin",91.7%
same,"TOXICITY VALUES (XTT), MEAN","[2]; 32 μg/ml, no mucin",0.466 O.D. @ 450/650 nm
same,"TOXICITY VALUES (XTT), single samples","[2]; 32 μg/ml, no mucin",0.457 O.D. @ 450/650 nm and 0.438 O.D. @ 450/650 nm and 0.493 O.D. @ 450/650 nm
same,"% CC (XTT, percent of cell control)",[2]; [7],91.7%
same,"TOXICITY VALUES (XTT), MEAN",[2]; [7],0.466 O.D. @ 450/650 nm
same,"TOXICITY VALUES (XTT), single samples",[2]; [7],0.467 O.D. @ 450/650 nm and 0.438 O.D. @ 450/650 nm and 0.493 O.D. @ 450/650 nm
same,"% CC (XTT, percent of cell control)","[2]; 100 μg/ml, no mucin",97.8%
same,"TOXICITY VALUES (XTT), MEAN","[2]; 100 μg/ml, no mucin",0.497 O.D. @ 450/650 nm
same,"TOXICITY VALUES (XTT), single samples","[2]; 100 μg/ml, no mucin",0.481 O.D. @ 450/650 nm and 0.491 O.D. @ 450/650 nm and 0.519 O.D. @ 450/650 nm
same,"% CC (XTT, percent of cell control)",[2]; [8],97.8%
same,"TOXICITY VALUES (XTT), MEAN",[2]; [8],0.497 O.D. @ 450/650 nm
same,"TOXICITY VALUES (XTT), single samples",[2]; [8],0.481 O.D. @ 450/650 nm and 0.491 O.D. @ 450/650 nm and 0.519 O.D. @ 450/650 nm
same,TC50 (concentration at which 50% of cells are eliminated),[2]; no mucin,TC50 = 100 μg/ml
same,TC50 (concentration at which 50% of cells are eliminated),[2]; with 150 μg/ml pig mucin,TC50 = 100 μg/ml
